For the assay, the target named is T1, CfGRP94 (canine GRP94 73–754Δ41) (Canis lupus, UniProt P41148, DEL287-327, form not given).
T1 construct: gene HSP90B1
The settings on record: geldanamycin-sensitive activity; 25 mM HEPES pH 7.5, 5 mM MgCl2, 400 mM KCl, 0.03% Tween 20, 10% glycerol. The text has this: NADH-coupled ATPase assay (pyruvate kinase / lactate dehydrogenase) on CfGRP94 (canine GRP94 73–754Δ41)

T1 sequence (P41148 73-286, stated change not applied): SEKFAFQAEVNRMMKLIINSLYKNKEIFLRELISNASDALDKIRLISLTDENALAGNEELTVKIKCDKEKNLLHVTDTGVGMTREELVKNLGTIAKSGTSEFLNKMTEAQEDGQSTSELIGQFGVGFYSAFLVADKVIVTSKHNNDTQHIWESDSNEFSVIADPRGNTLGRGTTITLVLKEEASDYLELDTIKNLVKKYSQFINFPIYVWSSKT
T1 sequence (P41148 328-754, stated change not applied): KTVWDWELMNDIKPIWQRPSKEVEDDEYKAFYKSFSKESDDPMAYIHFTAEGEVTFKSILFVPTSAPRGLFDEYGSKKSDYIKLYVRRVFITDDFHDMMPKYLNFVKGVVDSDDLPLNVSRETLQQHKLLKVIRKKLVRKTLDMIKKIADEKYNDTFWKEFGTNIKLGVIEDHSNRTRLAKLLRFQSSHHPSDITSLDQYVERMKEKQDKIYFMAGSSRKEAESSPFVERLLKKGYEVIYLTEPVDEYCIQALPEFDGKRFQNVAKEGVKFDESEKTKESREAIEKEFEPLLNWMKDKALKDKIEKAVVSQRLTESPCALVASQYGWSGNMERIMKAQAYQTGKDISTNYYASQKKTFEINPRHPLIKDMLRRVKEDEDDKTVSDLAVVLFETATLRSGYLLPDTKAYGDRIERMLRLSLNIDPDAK

Regarding `Nc1ncnc2c1ncn2[C@@H]1O[C@H](COP(=O)(O)OP(=O)(O)OP(=O)(O)O)[C@@H](O)[C@H]1O` [ATP], the Km (usually the substrate concentration at which the rate is half of its maximum) turned out to be 65 ± 13 µM.
